Laboratory results: US20100093613A1, “METHODS FOR IDENTIFYING AGENTS AND THEIR USE FOR THE PREVENTION OR STABILIZATION OF FIBROSIS” (priority 2007, published 2010)

Assays:
[1] = tested on: Bronchial epithelial cells; assay: BioMAP BE3C system (IL-1β + TNF-α + IFN-γ), scoring of readout parameters; format: cell-based, human; conditions: for PAI-1 score: desired change decrease
From the text: (§1) Each screened compound is scored according to its modulation of the selected readout parameters. Compounds receive a positive score (score of 1) or negative score (score of 0) for each readout parameter set forth in Table 2 that is modulated in the desired direction. […] Parameters may be penalized by making the positive score a −1 for parameters where regulation is opposite to the desired direction.
(§2) Cell culture. Human umbilical vein endothelial cells (HUVEC) were pooled from multiple donors, cultured according to standard methods, and plated into microtiter plates at passage 4. Cell culture medium for all systems containing HUVEC included hydrocortisone. Coronary artery smooth muscle cells (CASM3C) and umbilical artery smooth muscle cells (HSM3C) were cultured according to standard procedures. Peripheral blood mononuclear cells (PBMC) were prepared from buffy coats from normal human donors according to standard methods. Monocyte-derived macrophages were differentiated in the presence of M-CSF for 7 d according to standard procedures. Human dermal fibroblasts were pooled from 3 donors, cultured according to standard methods, and plated confluent 24 h before stimulation. Cell culture medium for all systems containing fibroblasts and keratinocytes contained low hydrocortisone. Epidermal keratinocytes and bronchial epithelial cells from 3 donors were cultured according to standard procedures and pooled when plated into microtiter plates. For keratinocyte-fibroblast co-cultures, cells were plated simultaneously 24 h before stimulation. For bronchial epithelial cell-fibroblast co-cultures, fibroblasts were plated and cultured 48 before addition of epithelial cells, then cultured another 24 hr before stimulation. Concentrations/amounts of agents added to confluent microtiter plates to build each system: cytokines (IL-1β, 1 ng/ml; TNF-α, 5 ng/ml; IFN-γ, 20 ng/ml; IL-4, 5 ng/ml), activators (SAg, 20 ng/ml; histamine, 10 μM; zymosan, 10 μg/ml; or LPS, 2 ng/ml), growth factors (TGF-β, 5 ng/ml; EGF, bFGF, and PDGF-BB, 10 ng/ml), and PBMC (7.5×10^4 cells/well) or macrophages (3.5×10^4 cells/well).
(§3) Compounds. Compounds were prepared in the solvent directed, added 1 hr before stimulation of the cells, and were present during the 24 hr stimulation period for the measurement of parameters listed in Table 2. For proliferation, compounds added 1 hr before stimulation of the cells with cytokines, and were present during the 48 to 72 hr assay. If prepared in DMSO, the final concentration of solvent was 0.1% or less.
(§4) Readout Parameter Measurements. The levels of readout parameters were measured by ELISA. Briefly, microtiter plates are treated, blocked, and then incubated with primary antibodies or isotype control antibodies (0.01-0.5 microg/ml) for 1 hr. After washing, plates were incubated with a peroxidase-conjugated anti-mouse IgG secondary antibody or a biotin-conjugated anti-mouse IgG antibody for 1 hr followed by streptavidin-HRP for 30 min. Plates were washed and developed with TMB substrate and the absorbance (OD) was read at 450 nm (subtracting the background absorbance at 650 nm). Quantitation of TNF-alpha or PGE2 in the LPS system was done using a commercially available kit according to the manufacturer's directions. Proliferation of endothelial cells (HUVEC and CAEC), smooth muscle cells (SMC and CASMC), and PBMC (T cells) was quantitated by Alamar Blue reduction or SRB.
(§5) Data analysis. Mean OD values for each parameter were calculated for compounds run in duplicate. The mean value (or single well OD value) for each parameter in a treated sample was then divided by the mean value from an appropriate control to generate a ratio. All ratios were then log10 transformed. 95% significance prediction envelopes (grey shading in Figures) were calculated for historical controls.

[2] = tested on: Bronchial epithelial cells; assay: BioMAP BE4T system (IL-4 + TNF-a), scoring of readout parameters; format: cell-based, human; parameters: key: 1 = modulated in desired direction, 0 = not (−1 = opposite); conditions: for PAI-1 score: desired change decrease; for EGFR score: desired no change or increase
Method: In the “BE4T” system, bronchial epithelial cells, usually primary human bronchial epithelial cells, are cultured in the presence of TNF-α and IL-4.
as §1, §2, §3, §4, §5

[3] = tested on: Fibroblasts; assay: BioMAP HDF3CT system (IL-1β + TNF-α + IFN-γ + TGF-β), scoring of readout parameters; format: cell-based, human
From the text: as §1, §2, §3, §4, §5

[4] = tested on: Fibroblasts; assay: BioMAP HDFT system (TGF-β), scoring of readout parameters; format: cell-based, human; parameters: key to PAI-1 score: 1 = modulated in desired direction, 0 = not (no penalties applied); conditions: HDFT; desired change decrease
From the text: as §1
(§6) Compounds were first selected to inhibit PAI-1 in the HDFT as an indication of TBF-b signaling inhibition without being cytotoxic. […] Blank spots in Table 3 were where parameter was not assayed. Penalties were not applied for this scoring.
as §2, §3, §4
Data analysis. Mean OD values for each parameter were calculated for compounds run in duplicate. The mean value (or single well OD value) for each parameter in a treated sample was then divided by the mean value from an appropriate control to generate a ratio.

[5] = tested on: Fibroblasts; assay: BioMAP HDF3CGF system (IL-1β + TNF-α + IFN-γ + EGF + bFGF + PDGFbb), scoring of readout parameters; format: cell-based, human; conditions: for PAI-1 score: desired change decrease; for MMP-1 score: desired change increase; for EGFR score: desired no change or increase
Method: In the “HDF-3CGF” system, dermal fibroblast cells, usually primary human dermal fibroblast cells are cultured alone or in the presence of lung epithelial cells, usually primary human lung epithelial cells, with two or more factors selected from: TNF, IL-1, IFNγ, EGF, bFGF+HSPG (heparan sulfate proteoglycan), and PDGFbb. In some embodiments three or more factors are present, four or more, five or more, or all six factors are present.
Human neonatal dermal fibroblasts (HDFn) or adult lung fibroblasts (HDFp) or fibroblasts from tissues such as liver, heart, or kidney are used. Cells are cultured at 3×10^4 cells/ml in DMEM/F12 (50/50) from Cellgro, supplemented with LSGS kit (from Cascade Biologics); fetal bovine serum, 2% v/v, hydrocortisone 100 nM, human epidermal growth factor 10 ng/ml, basic fibroblast growth factor 3 ng/ml and heparin 10 μg/ml, and penicillin/streptomycin amphotericin B solution (PSA), until confluency. Medium is replaced with DMEM/F12 with only penicillin/streptomycin amphotericin B solution (PSA), then 24 hours later, the following are applied:
After another 24, 48 or 72 hours incubation (37° C., 5% CO2) the cultures are evaluated for the following parameters: ICAM, VCAM, CD40, CD90, IP-10, MCP-1, Collagen I, Mig, m-CSF, TIMP-2, PAI-I, IL-8, Collagen III, HLA-DR, MMP-1, MMP-9, proliferation, TGF-b1, eotaxin-3, decorin, alpha-SMC, MLCK, I-TAC, EGFR, TIMP-1.
Cell culture. […] Human dermal fibroblasts were pooled from 3 donors, cultured according to standard methods, and plated confluent 24 h before stimulation. Cell culture medium for all systems containing fibroblasts and keratinocytes contained low hydrocortisone. […] Concentrations/amounts of agents added to confluent microtiter plates to build each system: cytokines (IL-1β, 1 ng/ml; TNF-α, 5 ng/ml; IFN-γ, 20 ng/ml; IL-4, 5 ng/ml), activators (SAg, 20 ng/ml; histamine, 10 μM; zymosan, 10 μg/ml; or LPS, 2 ng/ml), growth factors (TGF-β, 5 ng/ml; EGF, bFGF, and PDGF-BB, 10 ng/ml), and PBMC (7.5×10^4 cells/well) or macrophages (3.5×10^4 cells/well).

[6] = tested on: Peripheral Blood Mononuclear Cells + Umbilical Vein Endothelial Cells; assay: BioMAP LPS system (TLR4), scoring of readout parameters; format: cell-based, human; conditions: LPS (by position); desired change decrease
From the text: as §1, §2, §3, §4, §5

[7] = tested on: Umbilical Vein Endothelial Cells; assay: BioMAP 3C system (IL-1β + TNF-α + IFN-γ), scoring of readout parameters; format: cell-based, human; conditions: for HLA-DR score: desired change decrease; for uPAR score: desired change increase
From the text: as §1, §2, §3, §4, §5

[8] = tested on: human primary cells; assay: Total score for desired parameter modulation over the BioMAP systems of Table 1; format: cell-based; conditions: penalties not applied
From the text: as §1
The relative importance of each parameter may be weighted by the screener to select those parameters of greatest interest for a particular application.
as §6
BioMAP Systems are designed to model complex human disease biology in a practical in vitro format. This is achieved by stimulating human primary cells (single cell type or defined mixtures of cell types) such that multiple disease-relevant signaling pathways are simultaneously active. The choice of cell types and stimulations is guided by the knowledge of disease biology and mechanisms. Incorporating appropriate cell types and stimulating signaling pathways relevant to disease states allows association of biological activities detected in BioMAP Systems with disease processes. Drug effects are then recorded by measuring biologically meaningful protein readouts that provide coverage of biological space of interest (e.g., inflammation, tissue remodeling) and allow discrimination between different drug classes tested.
as §2, §3
Readout Parameter Measurements. The levels of readout parameters were measured by ELISA.

[9] = PMID 17023731, PMID 8421998; cited from earlier work

| SMILES | HLA-DR score [1] | MMP-1 score [1] | PAI-1 score [1] | uPA score [2] | PAI-1 score [2] | EGFR score [2] | MMP-1 score [3] | PAI-1 score [4] | PAI-1 score [5] | MMP-1 score [5] | EGFR score [5] | TF score [6] | HLA-DR score [7] | uPAR score [7] | Score (Fraction correctly modulated parameters out of 45-58 total) [8] | anti-fibrotic activity [9] |
| --- | --- | --- | --- | --- | --- | --- | --- | --- | --- | --- | --- | --- | --- | --- | --- | --- |
| C=C(NC(=O)C(=C)NC(=O)c1csc(C2=N[C@@H]3c4csc(n4)[C@H]4NC(=O)c5csc(n5)[C@H]([C@](C)(O)[C@@H](C)O)NC(=O)[C@H]5CSC(=N5)/C(=C/C)NC(=O)[C@H]([C@@H](C)O)NC(=O)c5csc(n5)[C@]3(CC2)NC(=O)[C@H](C)NC(=O)C(=C)NC(=O)[C@H](C)NC(=O)[C@H]([C@@H](C)CC)N[C@@H]2C=Cc3c([C@H](C)O)cc(nc3[C@H]2O)C(=O)O[C@@H]4C)n1)C(N)=O [Thiostrepton] | 0 | 0 | 0 | 0 | 0 | 1 | 0 | 1 | 1 | 0 | 0 | 1 | 0 | 0 | 0.42 | – |
| Cc1[nH]ccc2c1[nH]c1cc(=O)ccc12 [Harmol] | 0 | 0 | 1 | 0 | 0 | 0 | 0 | 1 | 1 | 0 | 0 | 1 | 0 | 0 | 0.29 | – |
| CC(=O)S[C@@H]1CC2=CC(=O)CC[C@]2(C)[C@H]2CC[C@@]3(C)[C@@H](CC[C@@]34CCC(=O)O4)[C@H]12 [spironolactone] | – | – | – | – | – | – | – | – | – | – | – | – | – | – | high scores | known anti-fibrotic activity |
| Cc1cc(C2CCCCC2)n(O)c(=O)c1.NCCO [Ciclopirox Ethanolamine] | 0 | 0 | 0 | 0 | 0 | 1 | 0 | 1 | 1 | 0 | 0 | 0 | 0 | 0 | 0.31 | – |
| COc1cc(/C=C/C(=O)N2CCC=CC2=O)cc(OC)c1OC [Piperlongumine] | 0 | 0 | 0 | 0 | 0 | 0 | 0 | 1 | 1 | 0 | 0 | 1 | 0 | 0 | 0.47 | – |
